Data reported in article PMC10223284, “Category-Based Toxicokinetic Evaluations of Data-Poor Per- and Polyfluoroalkyl Substances (PFAS) using Gas Chromatography Coupled with Mass Spectrometry” (Toxics, 2023).
Several values for one entry are separate records, joined by “and”; a condition that tells them apart may be missing. Identical values can stand only once.

How the values were obtained:
[1] = Abiotic loss in negative controls of the hepatocyte clearance assay (cell-free media, metabolically inactivated hepatocytes); format: in vitro ADME; settings: flag for stability failure in hepatocyte clearance assay controls (1 or Fst = fail, 0 = pass)
Experimental: The hepatic metabolic stability assay measures the loss of a parent compound over time in a substrate-depletion approach. Briefly, hepatocyte suspensions, after a viability assessment, were diluted in complete William’s medium E (containing dexamethasone and cell maintenance cocktail B) prior to addition to 96-well polypropylene plates containing an equal volume of media spiked with the test compound (1 μM assay concentration; assay cell density = 50,000 cells/100 μL) and maintained at 37 °C with shaking. At each time point, relevant plates were crashed with an equal volume of ice-cold acetonitrile, centrifuged, and supernatant transferred to a new plate prior to storage at <−70 °C until quantitative analysis. Controls, run in parallel, included cell-free (i.e., media only) and metabolically inactivated hepatocytes to evaluate abiotic chemical stability in the aqueous media matrix with and without cellular protein. In preliminary runs, these controls were run at T0 and T240 only. If significant instability was noted, the hepatocyte clearance assay was rerun, including cell-free samples at each time point and metabolically inactivated hepatocytes at selected time points.
Negative controls, including media only and metabolically inactivated hepatocyte controls, were included to monitor abiotic loss (i.e., background clearance) during the assay. Where significant compound loss occurred using the analysis described above, background clearance rates were calculated and used to background-adjust hepatic metabolic clearance rates. Where chemicals were cleared prior to the end of the analysis, at 240 min (T240), the corresponding negative control timepoint was used for background subtraction. Any chemicals displaying a 50% or more abiotic loss at T120 were deemed unstable and were excluded from further analyses.

[2] = test system: human plasma; test: Chemical stability in plasma over the UC assay time course (T5hr/T1hr); settings: for % remaining_PPB: chemical remaining in plasma over the PPB assay time course, NS = no significant loss; for PPB_Stab_Fail: flag for stability failure in the plasma protein binding assay (1 = fail, 0 = pass); for Fstable.Med: median fraction stable in plasma, UC assay Level4; for Stability (T5hr/ T1hr), replicates A, B, C: single replicate of one UC run; for Time 1 hr / Time 1 hr, Run-specific Avg: amount measured in plasma sample at 1 hr; for Time 1 hr / Time 5 hr: replicates A, B, C; for Time 1 hr / Time 1 hr, Run-specific Avg / Time 5 hr / Time 5 hr, Run-specific Avg: unit not given; for Time 1 hr, Run-specific Avg / Time 5 hr, Run-specific Avg: run average; for Time 5 hr / Time 5 hr, Run-specific Avg: amount measured in plasma sample at 5 hr
[3] = test system: human plasma; test: Ultracentrifugation (UC) plasma protein binding assay, fraction unbound in plasma (fup); settings: for Mean fu: fraction unbound in human plasma, ultracentrifugation, some values based on eLOQ; for Fup.Med: median fraction unbound in plasma; for Fup.Med / Fup.point: UC assay Level4; for Fup.point: point estimate of fraction unbound in plasma; for Fraction Unbound (fu), replicates A, B, C: single replicate of one UC run (aqueous fraction / Time 5 hr); for Aqueous Fraction / Aqueous Fraction, Run-specific Avg: amount measured in aqueous fraction after ultracentrifugation, unit not given; for Aqueous Fraction: replicates A, B, C; for Aqueous Fraction, Run-specific Avg: run average
[4] = average of one UC run (run date in line above)
[5] = mean T5hr/T1hr ratio over all replicates and runs, plasma
[6] = mean fraction unbound over all replicates and runs, UC assay, human plasma
[7] = mean T5hr/T1hr ratio in plasma over all replicates/runs
[8] = mean over all UC runs and replicates, human plasma

Row | Compound | Hep_Stab_Fail [1] | Stability (T5hr/ T1hr), Run-specific Avg [2, 4] | % remaining_PPB [2] | PPB_Stab_Fail [2] | Mean Stability [2, 5] | Fstable.Med [2] | Stability (T5hr/ T1hr), replicates A, B, C [2] | Mean fu [3] | Fup.Med [3] | Fup.point [3] | Fraction Unbound (fu), Run-specific Avg [3, 4] | Fraction Unbound (fu), replicates A, B, C [3] | other results
1 | N=C(N)C(F)(F)C(F)(F)C(F)(F)C(F)(F)C(F)(F)C(F)(F)C(F)(F)F [Perfluorooctanamidine] | 1 | 0.890 | 67% | 0 | 0.892 | 0.0291 | 0.858 and 0.887 and 0.929 | 0.0253 | 4.95E-09 | 0.0261 |  |  | 
2 | FC(F)(F)C(F)(F)C(F)(F)C(F)(F)C(F)(F)C(F)(F)C(F)(F)CCI [1-Iodo-1H,1H,2H,2H-perfluorononane] | Fst |  | 51.7% | 0 |  | 0.358 |  | 0.1123 | 0.108 | 0.112 |  |  | 
3 | CN(C(=O)C(F)(F)C(F)(F)C(F)(F)F)[Si](C)(C)C [N-Methyl-N-trimethylsilylheptafluorobutyramide] | 1 | 0.935 |  | 0 | 0.935 | 0.274 | 0.978 and 0.906 and 0.921 | 0.5451 | 0.532 | 0.545 | 0.55 | 0.507 and 0.525 and 0.603 | Mean Fu [3, 6]: 0.545
4 | FC(F)(F)C(F)(F)C(F)(F)C(F)(F)C(F)(F)C(F)(F)C(F)(F)I [1-Iodopentadecafluoroheptane] | 1 |  | 16% | 1 |  | 0.202 |  |  | 0.907 |  |  |  | 
5 | OCCCC(F)(F)C(F)(F)C(F)(F)C(F)(F)C(F)(F)C(F)(F)C(F)(F)F [7:3 Fluorotelomer alcohol] | 1 |  |  | 0 |  |  |  | 0.0230 |  |  |  |  | 
6 | OCC(F)(F)C(F)(F)C(F)(F)C(F)(F)C(F)(F)C(F)(F)C(F)(F)C(F)(F)C(F)(F)C(F)(F)C(F)(F)F [11:1 Fluorotelomer alcohol] | 1 |  | 100% | 0 |  | 0.341 |  | 0.0570 | 0.0578 | 0.0621 |  |  | Time 1 hr [2]: 16624.1 and 16003.4 and 18170.7; Time 1 hr, Run-specific Avg [2]: 16932.71; Time 5 hr [2]: 8697.13 and 19831.5 and 16897.3; Time 5 hr, Run-specific Avg [2]: 14264.32; Stability (T5hr/ T1hr), Run-specific Avg ([2]; average of one UC run): 0.842; Mean Stability [2, 7]: 0.909; Aqueous Fraction [3]: 595.593 and 1494.34 and 453.605; Aqueous Fraction, Run-specific Avg [3]: 847.84; Fraction Unbound (fu), Run-specific Avg ([3]; average of one UC run): 0.0569
7 | FC(F)(F)COC(OCC(F)(F)F)OCC(F)(F)F [tris(Trifluoroethoxy)methane] | 1 | 0.660 | 66% | 0 | 0.662 | 0.362 | 0.6799 and 0.6407 and 0.6662 | 0.1728 | 0.132 | 0.0994 | 0.17 | 0.186 and 0.1626 and 0.1699 | Mean Fu [3, 6]: 0.173
8 | C=CC(=O)OCC(F)(F)C(F)(F)C(F)(F)COC(=O)C=C [1H,1H,5H,5H-Perfluoro-1,5-pentanediol diacrylate] | 1 |  | 0% | 1 |  | 0.00466 |  |  | 7.62E-09 | 0.177 |  |  | 
9 | OCC(F)(F)C(F)(F)C(F)(F)C(F)F [1H,1H,5H-Perfluoropentanol] | 1 | 0.858 |  | 0 | 0.855 | 1 | 0.775 and 0.902 and 0.887 | 0.3616 | 0.791 | 0.355 | 0.36 | 0.445 and 0.315 and 0.324 | Mean Fu [3, 6]: 0.362
10 | C=CC(=O)OCCC(F)(F)C(F)(F)C(F)(F)C(F)(F)F [2-(Perfluorobutyl)ethyl acrylate] | 1 |  | 0% | 1 |  | 0.000485 |  |  | 2.26E-06 | 0.078 |  |  | 
11 | NC(=O)C(F)(F)C(F)(F)C(F)(F)C(F)(F)C(F)(F)C(F)(F)C(F)(F)F [Perfluorooctanamide] | 1 |  |  | 0 |  | 0.738 |  | 0.0282 | 0.0252 | 0.0263 |  |  | Mean Stability (T5hr/T1hr) [2, 8]: 0.838; Stability (T5hr/ T1hr), Run-specific Avg ([2]; run-specific average): 0.841; Mean Fu (fraction unbound) [3, 8]: 0.028; Fraction Unbound (fu), Run-specific Avg ([3]; run-specific average): 0.0266
12 | NCC(F)(F)C(F)(F)C(F)(F)C(F)(F)C(F)(F)C(F)(F)C(F)(F)F [1H,1H-Perfluorooctylamine] | Fst |  | 58% | 0 |  | 0.0977 |  | 0.105 | 0.605 | 0.345 |  |  | Time 1 hr [2]: 5598.62 and 5535.59 and 4647.69; Time 1 hr, Run-specific Avg [2]: 5260.63; Time 5 hr [2]: 3087.52 and 3094.29 and 2839.44; Time 5 hr, Run-specific Avg [2]: 3090.91; Stability (T5hr/ T1hr), Run-specific Avg ([2]; average of one UC run): 0.588; Mean Stability [2, 7]: 0.577; Aqueous Fraction [3]: 245.64 and 173.583 and 303.476; Aqueous Fraction, Run-specific Avg [3]: 240.90; Fraction Unbound (fu), Run-specific Avg ([3]; average of one UC run): 0.08; Mean Fu ([3]; mean fraction unbound in human plasma over all UC replicates/runs): 0.081
13 | FC(F)(F)C(F)(F)C(F)(F)C(F)(F)CCI [1H,1H,2H,2H-Perfluorohexyl iodide] | 1 | 0.871 |  | 0 | 0.928 | 0.99 | 1.126 and 0.894 and 0.765 | 0.0980 | 0.0824 | 0.0905 | 0.10 | 0.08012 and 0.1098 and 0.1042 | Time 1 hr [2]: 4814.29 and 5234.67 and 5102.52; Time 1 hr, Run-specific Avg [2]: 5050.49; Time 5 hr [2]: 2541.5 and 2572.68 and 2719.11; Time 5 hr, Run-specific Avg [2]: 2557.09; Stability (T5hr/ T1hr), Run-specific Avg ([2]; average of one UC run): 0.506; Mean Stability [2, 7]: 0.517; Aqueous Fraction [3]: 429.404 and 197.254 and 248.159; Aqueous Fraction, Run-specific Avg [3]: 291.61
